Measured values reported in US11192890B2, “FGFR kinase inhibitors and pharmaceutical uses” (AUCKLAND UNISERVICES LIMITED, priority 2017, dated 2021).
Like-named read-outs stand apart in the source and are kept apart here.

How the values were obtained:
FGFR1 = molecular target: T1, FGFR1 (Homo sapiens, UniProt P11362); assay: Isolated enzyme FRET-based Z-Lyte kinase inhibition assay; type: biochemical; details: means from 3 independent experiments; read-out: Isolate Enzyme Inhibition IC50, FGFR1
T1 construct: purchased Invitrogen
T1 sequence (P11362 22-822): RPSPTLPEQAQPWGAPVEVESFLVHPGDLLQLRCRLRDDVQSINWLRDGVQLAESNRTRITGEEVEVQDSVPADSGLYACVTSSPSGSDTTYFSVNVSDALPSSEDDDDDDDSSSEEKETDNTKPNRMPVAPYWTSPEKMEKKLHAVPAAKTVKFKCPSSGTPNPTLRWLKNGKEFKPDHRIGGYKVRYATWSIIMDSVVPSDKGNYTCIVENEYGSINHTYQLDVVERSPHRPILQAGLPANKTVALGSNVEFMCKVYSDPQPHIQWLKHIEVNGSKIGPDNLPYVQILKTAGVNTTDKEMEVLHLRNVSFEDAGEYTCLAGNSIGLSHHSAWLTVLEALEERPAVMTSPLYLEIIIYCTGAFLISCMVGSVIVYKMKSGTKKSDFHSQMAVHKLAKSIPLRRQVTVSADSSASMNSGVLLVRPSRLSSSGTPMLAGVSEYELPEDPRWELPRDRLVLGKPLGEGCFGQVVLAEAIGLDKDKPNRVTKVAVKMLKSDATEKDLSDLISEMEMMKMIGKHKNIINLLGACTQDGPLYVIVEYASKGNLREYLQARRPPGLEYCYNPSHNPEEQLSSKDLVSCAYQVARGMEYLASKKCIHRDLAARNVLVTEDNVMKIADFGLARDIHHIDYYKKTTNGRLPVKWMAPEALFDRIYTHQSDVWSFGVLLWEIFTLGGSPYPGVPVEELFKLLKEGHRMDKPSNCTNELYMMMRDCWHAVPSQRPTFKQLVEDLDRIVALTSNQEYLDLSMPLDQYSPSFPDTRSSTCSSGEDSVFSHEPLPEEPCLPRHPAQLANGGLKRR
Method: (§1) FGFR1-4 and the Z-Lyte Kinase Assay Kit were purchased from Invitrogen. The concentration gradients from 5.1×10^−11 to 1.0×10^−6 mol/L were used for all the test compounds. The experiments were performed according to the instructions of the manufacturer.
(§2) FGFR1-4 isolated enzyme activity was determined using the FRET-based Z-Lyte kinase inhibition assay. The data are the means from 3 independent experiments.

FGFR2 = molecular target: T2, FGFR2 (Homo sapiens, UniProt P21802); assay: as above; type: biochemical; details: means from 3 independent experiments; read-out: Isolate Enzyme Inhibition IC50, FGFR2
T2 construct: purchased Invitrogen
T2 sequence (P21802 22-821): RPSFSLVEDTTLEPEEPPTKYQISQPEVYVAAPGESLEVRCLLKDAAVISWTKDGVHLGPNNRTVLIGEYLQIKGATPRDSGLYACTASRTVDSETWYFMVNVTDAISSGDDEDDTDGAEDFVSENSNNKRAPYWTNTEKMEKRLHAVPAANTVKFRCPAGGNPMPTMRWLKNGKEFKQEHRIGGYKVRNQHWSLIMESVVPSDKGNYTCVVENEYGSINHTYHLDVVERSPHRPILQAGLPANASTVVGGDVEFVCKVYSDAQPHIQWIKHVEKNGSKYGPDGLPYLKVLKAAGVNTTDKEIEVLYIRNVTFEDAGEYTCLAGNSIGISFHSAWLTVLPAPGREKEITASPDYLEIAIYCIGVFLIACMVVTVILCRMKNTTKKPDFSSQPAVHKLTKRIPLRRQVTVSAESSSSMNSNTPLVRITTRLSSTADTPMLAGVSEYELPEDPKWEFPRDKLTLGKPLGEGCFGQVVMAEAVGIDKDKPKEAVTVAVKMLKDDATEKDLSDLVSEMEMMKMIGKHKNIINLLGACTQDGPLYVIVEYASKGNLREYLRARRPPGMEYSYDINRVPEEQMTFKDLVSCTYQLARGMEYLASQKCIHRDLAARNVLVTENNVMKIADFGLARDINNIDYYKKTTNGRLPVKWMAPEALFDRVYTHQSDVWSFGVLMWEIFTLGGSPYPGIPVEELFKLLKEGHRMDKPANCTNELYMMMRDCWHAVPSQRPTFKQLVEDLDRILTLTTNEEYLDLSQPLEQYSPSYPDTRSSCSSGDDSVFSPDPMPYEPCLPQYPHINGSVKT
Method: as §1, §2

FGFR3 = molecular target: T3, FGFR3 (Homo sapiens, UniProt P22607); assay: as above; type: biochemical; details: means from 3 independent experiments; read-out: Isolate Enzyme Inhibition IC50, FGFR3
T3 construct: purchased Invitrogen
T3 sequence (P22607 23-806): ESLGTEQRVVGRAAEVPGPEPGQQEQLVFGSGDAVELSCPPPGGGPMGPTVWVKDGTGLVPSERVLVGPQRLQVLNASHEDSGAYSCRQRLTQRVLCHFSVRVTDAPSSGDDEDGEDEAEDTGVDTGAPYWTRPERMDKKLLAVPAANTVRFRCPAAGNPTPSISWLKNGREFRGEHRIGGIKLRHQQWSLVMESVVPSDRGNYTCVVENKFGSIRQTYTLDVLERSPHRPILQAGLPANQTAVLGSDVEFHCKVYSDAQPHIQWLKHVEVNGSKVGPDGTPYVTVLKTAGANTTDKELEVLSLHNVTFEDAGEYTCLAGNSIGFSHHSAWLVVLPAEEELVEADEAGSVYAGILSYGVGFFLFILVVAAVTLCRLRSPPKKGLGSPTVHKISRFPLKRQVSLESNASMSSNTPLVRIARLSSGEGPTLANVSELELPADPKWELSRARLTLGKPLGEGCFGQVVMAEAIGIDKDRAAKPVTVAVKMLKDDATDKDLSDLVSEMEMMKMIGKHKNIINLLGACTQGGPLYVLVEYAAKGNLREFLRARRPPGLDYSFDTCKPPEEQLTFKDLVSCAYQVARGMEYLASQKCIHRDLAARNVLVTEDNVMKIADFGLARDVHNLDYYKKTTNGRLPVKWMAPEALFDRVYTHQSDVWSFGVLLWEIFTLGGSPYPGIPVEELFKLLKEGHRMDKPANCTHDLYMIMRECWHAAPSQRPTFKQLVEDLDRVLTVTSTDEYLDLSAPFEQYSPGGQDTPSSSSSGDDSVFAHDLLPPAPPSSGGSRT
Method: as §1, §2

[1] = system: FGFR3 in SW780 cells (phospho-ERK1/2); assay: Drug washout Western blot assay, SW780 cells; type: cell-based; details: SW780; 30 min exposure, 100 nM, with and without washout
[2] = system: FGFR1 in H520 cells (phospho-ERK1/2); assay: Drug washout Western blot assay, H520 cells; type: cell-based; details: H520; 30 min exposure, 100 nM, with and without washout
SUM52 cells = assay: Oxic and anoxic anti-proliferative activity of the prodrugs; details: for Hypoxic Cytotoxicity Ratio (HCR), SUM52: ratio of oxic and anoxic IC50
[3] = read-out: Cellular Anti-proliferative IC50, SUM52, Anoxic, 4 hours of anoxia, remainder of assay oxic
[4] = read-out: Cellular Anti-proliferative IC50, SUM52, Oxic, oxic conditions

Row | SMILES | IC50 (FGFR1) [nM] | IC50 (FGFR2) [nM] | IC50 (FGFR3) [nM] | melting point [°C] | other results
1 | CNc1ncc2c(n1)N(C1CCN(C(=O)/C=C/CN3CCOCC3)CC1)C(=O)N(c1c(Cl)c(OC)cc(OC)c1Cl)C2 [Compound 123, (E)-3-(2,6-dichloro-3,5-dimethoxyphenyl)-7-(methylamino)-1-(1-(4-morpholinobut-2-enoyl)piperidin-4-yl)-3,4-dihydropyrimido[4,5-d]pyrimidin-2(1H)-one] | 0.7 | 2.7 | 8.3 |  | reversible or irreversible inhibition of FGFR3 in cells [1]: potent reversible inhibitors
2 | CNc1ncc2c(n1)N(C1CCC(NC(=O)/C=C/CN(C)C)CC1)C(=O)N(c1c(Cl)c(OC)cc(OC)c1Cl)C2 (stereo not shown) [Compound 126, (E)-N-(4-(3-(2,6-dichloro-3,5-dimethoxyphenyl)-7-(methylamino)-2-oxo-3,4-dihydropyrimido[4,5-d]pyrimidin-1(2H)-yl)cyclohexyl)-4-(dimethylamino)but-2-enamide] | 0.5 | 1.5 | 6.8 |  | reversible or irreversible inhibition of FGFR3 in cells [1]: potent reversible inhibitors
3 | COc1cc(OC)c(Cl)c(-c2cc3cnc(NC(C)C)nc3n(C3CCN(C(=O)/C=C/CN(C)C)CC3)c2=O)c1Cl [Compound 133, (E)-6-(2,6-dichloro-3,5-dimethoxyphenyl)-8-(1-(4-(dimethylamino)but-2-enoyl)piperidin-4-yl)-2-(isopropylamino)pyrido[2,3-d]pyrimidin-7(8H)-one] | 1 | 1.5 | 11 |  | reversible or irreversible inhibition of FGFR1 in cells [2]: potent irreversible inhibitors; reversible or irreversible inhibition of FGFR3 in cells [1]: potent irreversible inhibitors
4 | COc1cc(OC)c(Cl)c(-c2cc3cnc(NCC4CCOCC4)nc3n(C3CCN(C(=O)/C=C/CN(C)C)CC3)c2=O)c1Cl [Compound 137, (E)-6-(2,6-dichloro-3,5-dimethoxyphenyl)-8-(1-(4-(dimethylamino)but-2-enoyl)piperidin-4-yl)-2-(((tetrahydro-2H-pyran-4-l)methyl)amino)pyrido[2,3-d]pyrimidin-7(8H)-one] | 0.7 | 1.8 | 6.2 |  | reversible or irreversible inhibition of FGFR3 in cells [1]: potent reversible inhibitors
5 | CNc1cc2c(cn1)cc(-c1c(Cl)c(OC)cc(OC)c1Cl)c(=O)n2C1CCN(C(=O)/C=C/CN(C)C)CC1 [Compound 148, (E)-3-(2,6-dichloro-3,5-dimethoxyphenyl)-1-(1-(4-(dimethylamino)but-2-enoyl)piperidin-4-yl)-7-(methylamino)-1,6-naphthyridin-2(1H)-one] |  |  |  | 209 to 212 | 
6 | COc1cc(OC)c(Cl)c(-c2cc3cnc(NC(C)C)cc3n(C3CCN(C(=O)/C=C/CN(C)C)CC3)c2=O)c1Cl [Compound 149, (E)-3-(2,6-dichloro-3,5-dimethoxyphenyl)-1-(1-(4-(dimethylamino)but-2-enoyl)piperidin-4-yl)-7-(isopropylamino)-1,6-naphthyridin-2(1H)-one] |  |  |  | 243 to 246 | 
7 | COc1cc(OC)c(Br)c(N2Cc3cnc(NC(C)C)nc3N(C3CCN(C(=O)/C=C/CN(C)C)CC3)C2=O)c1Br [Compound 151, (E)-3-(2,6-dibromo-3,5-dimethoxyphenyl)-1-(1-(4-(dimethylamino)but-2-enoyl)piperidin-4-yl)-7-(isopropylamino)-3,4-dihydropyrimido[4,5-d]pyrimidin-2(1H)-one] | 4.2 | 3.5 | 35 |  | reversible or irreversible inhibition of FGFR1 in cells [2]: reversible binding characteristics
8 | COc1cc(OC)c(Br)c(-c2cc3cnc(Nc4ccccc4)nc3n(C3CCN(C(=O)/C=C/CN(C)C)CC3)c2=O)c1Br [Compound 152, (E)-6-(2,6-dibromo-3,5-dimethoxyphenyl)-8-(1-(4-(dimethylamino)but-2-enoyl)piperidin-4-yl)-2-(phenylamino)pyrido[2,3-d]pyrimidin-7(8H)-one] | 0.7 | 1.1 | 2 |  | reversible or irreversible inhibition of FGFR1 in cells [2]: potent irreversible inhibitors
9 | COc1cc(OC)c(Br)c(-c2cc3cnc(NC(C)C)nc3n(C3CCN(C(=O)/C=C/CN(C)C)CC3)c2=O)c1Br [Compound 153, (E)-6-(2,6-dibromo-3,5-dimethoxyphenyl)-8-(1-(4-(dimethylamino)but-2-enoyl)piperidin-4-yl)-2-(isopropylamino)pyrido[2,3-d]pyrimidin-7(8H)-one] | 0.8 | 1 | 7.6 |  | reversible or irreversible inhibition of FGFR1 in cells [2]: potent irreversible inhibitors
10 | COc1cc(OC)c(Br)c(-c2cc3cnc(NC(C)C)cc3n(C3CCN(C(=O)/C=C/CN(C)C)CC3)c2=O)c1Br [Compound 155, (E)-3-(2,6-dibromo-3,5-dimethoxyphenyl)-1-(1-(4-(dimethylamino)but-2-enoyl)piperidin-4-yl)-7-(isopropylamino)-1,6-naphthyridin-2(1H)-one] |  |  |  | 251 to 254 | 
11 | COc1cc(OC)c(Cl)c(N2Cc3cnc(Nc4ccccn4)nc3N(C3CCN(C(=O)/C=C/CN(C)C)CC3)C2=O)c1Cl [Compound 157, (E)-3-(2,6-dichloro-3,5-dimethoxyphenyl)-1-(1-(4-(dimethylamino)but-2-enoyl)piperidin-4-yl)-7-(pyridin-2-ylamino)-3,4-dihydropyrimido[4,5-d]pyrimidin-2(1H)-one] |  |  |  | 224 to 227 | 
12 | COc1cc(OC)c(Cl)c(N2Cc3cnc(Nc4cccnc4)nc3N(C3CCN(C(=O)/C=C/CN(C)C)CC3)C2=O)c1Cl [Compound 158, (E)-3-(2,6-dichloro-3,5-dimethoxyphenyl)-1-(1-(4-(dimethylamino)but-2-enoyl)piperidin-4-yl)-7-(pyridin-3-ylamino)-3,4-dihydropyrimido[4,5-d]pyrimidin-2(1H)-one] |  |  |  | 207 to 209 | 
13 | COc1cc(OC)c(Cl)c(N2Cc3cnc(Nc4ccncc4)nc3N(C3CCN(C(=O)/C=C/CN(C)C)CC3)C2=O)c1Cl [Compound 159, (E)-3-(2,6-dichloro-3,5-dimethoxyphenyl)-1-(1-(4-(dimethylamino)but-2-enoyl)piperidin-4-yl)-7-(pyridin-4-ylamino)-3,4-dihydropyrimido[4,5-d]pyrimidin-2(1H)-one] |  |  |  | > 300 | 
14 | COc1cc(OC)c(Cl)c(N2Cc3cnc(Nc4ccn(C)n4)nc3N(C3CCN(C(=O)/C=C/CN(C)C)CC3)C2=O)c1Cl [Compound 160, (E)-3-(2,6-dichloro-3,5-dimethoxyphenyl)-1-(1-(4-(dimethylamino)but-2-enoyl)piperidin-4-yl)-7-((1-methyl-1H-pyrazol-3-yl)amino)-3,4-dihydropyrimido[4,5-d]pyrimidin-2(1H)-one] |  |  |  | 203 | 
15 | COc1cc(OC)c(Cl)c(N2Cc3cnc(NC4CCOCC4)nc3N(C3CCN(C(=O)/C=C/C[N+](C)(C)Cc4c([N+](=O)[O-])ncn4C)CC3)C2=O)c1Cl.O=C([O-])C(F)(F)F [Compound 203, (E)-4-(4-(3-(2,6-dichloro-3,5-dimethoxyphenyl)-2-oxo-7-((tetrahydro-2H-pyran-4-yl)amino)-3,4-dihydropyrimido[4,5-d]pyrimidin-1(2H)-yl)piperidin-1-yl)-N,N-dimethyl-N-((1-methyl-4-nitro-1H-imidazol-5-yl)methyl)-4-oxobut-2-en-1-aminium 2,2,2-trifluoroacetate] |  |  |  | 157 to 160 | Hypoxic Cytotoxicity Ratio (HCR), SUM52 (SUM52 cells): 26; IC50 (SUM52 cells; [3]): 37 nM; IC50 (SUM52 cells; [4]): 961 nM
16 | COc1cc(OC)c(Br)c(-c2cc3cnc(NC(C)C)cc3n(C3CCN(C(=O)/C=C/C[N+](C)(C)Cc4c([N+](=O)[O-])ncn4C)CC3)c2=O)c1Br.[Br-] [Compound 216, (E)-4-(4-(3-(2,6-dibromo-3,5-dimethoxyphenyl)-7-(isopropylamino)-2-oxo-1,6-naphthyridin-1(2H)-yl)piperidin-1-yl)-N,N-dimethyl-N-((1-methyl-4-nitro-1H-imidazol-5-yl)methyl)-4-oxobut-2-en-1-aminium bromide] |  |  |  | 219 | Hypoxic Cytotoxicity Ratio (HCR), SUM52 (SUM52 cells): 59; IC50 (SUM52 cells; [3]): 6 nM; IC50 (SUM52 cells; [4]): 346 nM
17 | COc1cc(OC)c(Cl)c(N2Cc3cnc(Nc4ccccc4)nc3N(C3CCN(C(=O)/C=C/C[N+](C)(C)Cc4c([N+](=O)[O-])ncn4C)CC3)C2=O)c1.[Br-] [Compound 217, (E)-4-(4-(3-(2-chloro-3,5-dimethoxyphenyl)-2-oxo-7-(phenylamino)-3,4-dihydropyrimido[4,5-d]pyrimidin-1(2H)-yl)piperidin-1-yl)-N,N-dimethyl-N-((1-methyl-4-nitro-1H-imidazol-5-yl)methyl)-4-oxobut-2-en-1-aminium bromide] |  |  |  | 181 to 184 | Hypoxic Cytotoxicity Ratio (HCR), SUM52 (SUM52 cells): 7; IC50 (SUM52 cells; [3]): 4 nM; IC50 (SUM52 cells; [4]): 24 nM
18 | COc1cc(OC)c(Cl)c(-c2cc3cnc(Nc4ccccc4)cc3n(C3CCN(C(=O)/C=C/CN(C)C)CC3)c2=O)c1Cl [Compound 232, (E)-3-(2,6-dichloro-3,5-dimethoxyphenyl)-1-(1-(4-(dimethylamino)but-2-enoyl)piperidin-4-yl)-7-(phenylamino)-1,6-naphthyridin-2(1H)-one] |  |  |  | 230 to 233 | 
